Key:
[1] = Half life in CD1 mouse at 30 mg/kg, iv; format: ADME, organism-based; details: in vivo
[2] = Reduction of CoASH in human hepatocytes derived from methylmalonic acidemia patient pretreated for 30 mins followed by 13C-isoleucine addition and measured after 1 hr by MS/MS analysis; format: functional, cell-based; details: hepatocyte
[3] = Induction of toxicity in minipig assessed as induction of adverse effect at 300 mg/kg/day; format: organism-based, Sus scrofa domesticus; details: pig, in vivo
[4] = Tmax in Sprague-Dawley rat at 50 mg/kg, po; format: ADME, organism-based; details: in vivo
[5] = Drug metabolism in Sprague-Dawley rat urine assessed as HST5040-glucuronide metabolite formation at 10 mg/kg administered as single dose by LC/MS analysis; format: ADME, organism-based; details: in vivo
OAT1 = molecular target: T1, OAT1 (Homo sapiens, UniProt Q4U2R8); assay: Inhibition of human OAT1 assessed as reduction in OAT1-mediated tenofovir transport at 14900 uM relative to control; details: not told, probe tenofovir
T1 sequence (Q4U2R8 whole entry): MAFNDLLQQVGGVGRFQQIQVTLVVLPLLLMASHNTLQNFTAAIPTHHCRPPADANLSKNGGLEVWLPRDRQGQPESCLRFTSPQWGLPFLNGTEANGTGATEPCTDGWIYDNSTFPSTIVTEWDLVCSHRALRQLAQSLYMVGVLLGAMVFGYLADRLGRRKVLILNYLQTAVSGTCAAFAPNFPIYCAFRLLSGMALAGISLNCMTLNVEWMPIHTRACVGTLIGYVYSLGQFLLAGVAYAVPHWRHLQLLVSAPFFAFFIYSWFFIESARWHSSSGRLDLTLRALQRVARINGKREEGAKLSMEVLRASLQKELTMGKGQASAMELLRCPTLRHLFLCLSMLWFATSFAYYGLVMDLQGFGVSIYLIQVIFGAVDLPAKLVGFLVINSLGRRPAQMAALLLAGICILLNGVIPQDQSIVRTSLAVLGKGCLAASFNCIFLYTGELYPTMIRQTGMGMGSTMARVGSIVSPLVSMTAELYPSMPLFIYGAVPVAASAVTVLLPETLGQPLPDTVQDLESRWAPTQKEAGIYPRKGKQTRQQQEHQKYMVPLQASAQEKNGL

[6] = Stability in rat hepatocytes assessed as unchanged compound at 50 uM measured after 4 hrs; format: ADME, cell-based, Hepatocyte; details: read-out: Stabilty
Cytochrome P450 2B6 = molecular target: T2, Cytochrome P450 2B6 (Homo sapiens, UniProt P20813); assay: Direct inhibition of CYP2B6 in human liver microsomes using bupropion as substrate; format: ADME
T2 sequence (P20813 whole entry): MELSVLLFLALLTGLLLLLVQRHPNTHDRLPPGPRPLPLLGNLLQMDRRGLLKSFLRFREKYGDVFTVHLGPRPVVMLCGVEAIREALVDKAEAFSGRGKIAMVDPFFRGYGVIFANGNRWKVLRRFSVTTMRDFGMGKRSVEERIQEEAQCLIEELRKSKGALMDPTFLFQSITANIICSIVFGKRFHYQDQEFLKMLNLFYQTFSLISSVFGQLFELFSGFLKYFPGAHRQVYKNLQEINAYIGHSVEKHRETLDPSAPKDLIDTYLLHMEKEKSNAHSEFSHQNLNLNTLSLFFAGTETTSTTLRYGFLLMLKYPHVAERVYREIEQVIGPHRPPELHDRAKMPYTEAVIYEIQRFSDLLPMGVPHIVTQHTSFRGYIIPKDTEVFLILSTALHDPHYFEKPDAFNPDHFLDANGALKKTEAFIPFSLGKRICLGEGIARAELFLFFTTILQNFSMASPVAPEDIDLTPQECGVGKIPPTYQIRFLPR

Structure (SMILES): CCC(C)(C)C(=O)O [DIMEBUTIC ACID]
- half-life [1]: 49.9 min
- EC50 [2]: 14.1 µM
- Activity [3]: Non-Toxic
- Tmax [4]: 20 min
- Drug metabolism [5]: Metabolite_Detected
- inhibition at 14900 µM (OAT1): 83.2%
- remaining at 4 h, 50 µM [6]: 86%
- IC50 (Cytochrome P450 2B6): > 10000 µM
